According to US5219879A, “Heterocyclic steroid compounds” (Du Pont Merck Pharmaceutical Company, priority 1991, dated 1993):
pIC50: −log10 of the molar value.

Columns and labels:
[1] = test system: 3-Hydroxy-3-Methylglutaryl Coenzyme A Reductase (HMGR); experiment: 3-Hydroxy-3-Methylglutaryl Coenzyme A Reductase (HMGR) Suppression Assay; assay type: cell-based, Chinese Hamster (CHO cells); settings: CHO cells, 6 hr. at 37°; read-out: IC50 (amount of compound required to suppress HMGR activity by 50% relative to controls)
Method: The ability of the compounds of Formula I to suppress the activity of HMGR, the rate limiting enzyme of cholesterol biosynthesis, was tested as follows.
Chinese Hamster Ovary (CHO) cells were divided twice weekly and were maintained in McCoy's 5A medium supplemented with 1% carbosil delipidated Fetal Bovine System (FBS) (obtained from Gibco Laboratories, Chagrin Falls, Ohio). Cells were harvested during the logarithmic phase of growth and cell cultures were prepared by adding […] cells to each well in a 24 well cluster dish (obtained from Costar, Data Packaging Corp., Cambridge, Mass.) employing 1 ml of the above medium per each well. […] Control cells were treated in an identical fashion to those which received test compound, except they were incubated with the BSA and ethanol suspension only.
Specifically, the medium in each well was aspirated and the cells rinsed with a 50 mM solution of phosphate buffered saline (PBS). One ml of 30 mg/ml of digitonin in CSK buffer (prepared using 10 mM Pipes [piperazine-N,N'-bis (2-ethansulfonic) acid], 100 mM KCl, 2.5 mM MgCl2, 300 mM sucrose, 1 mM EGTA, pH 6.8) was added to each well and incubated for 10 min. at 22° to permeabilize the cells. The buffer was carefully aspirated and the wells were rinsed twice each time with 1 ml of PBS. HMGR activity was measured directly by adding 75 ml of PIB buffer (50 mM potassium phosphate, 1 mM Na2 EDTA, 10 mM dithiothreitol, pH 7.4) to each well and incubating the cells for 30 minutes at 37° as described above. […] The assay mixture was incubated for 30 min. at 37° and terminated by the addition of 70 ml of [^3 H]-mevalonicacid (35,000 DPM/assay), 0.15 mg/ml in 3N HCl.
The reaction was left to lactonize for an additional 30 min. at 37° or overnight at room temperature.
Reaction products were separated by thin layer chromatography on silica gel G (obtained from Analtech, Newark, Del.) developed in an unsaturated environment with acetone:benzene (3:2, v:v). The band corresponding to mevalonolactone was identified by exposure to iodine vapor and was scraped into counting vials. The extent of conversion of starting substrate, HMG-CoA, to mevalonic acid was determined by liquid scintillation counting in Biofluor (obtained from New England Nuclear, Boston, Mass.). Corrections for recovery and blank values were made for each sample. Protein determinations were made by Bio-Rad (Bio-Rad, Richmond, Calif.) dye binding assay according to the manufacturer's instruction using bovine serum albumin as standard. Cellular protein was solubilized from culture dishes by the addition of 20 μl of 16N KOH and assayed directly for protein amount. Suppression values are expressed as the amount of compound required to suppress HMGR activity by 50% relative to that of the controls.

[2] = test system: Venturia inaequalis; experiment: Example A: apple scab on apple seedlings; assay type: in vivo; settings: 200 ppm, sprayed the day before inoculation, 100 = 100% disease control
Method: (§1) The test compounds were dissolved in acetone in an amount equal to 6% of the final volume and then suspended at a concentration of 200 ppm in purified water containing 250 ppm of the surfactant TREM 014 (polyhydric alcohol esters). This suspension was sprayed to the point of run-off on apple seedlings. The following day plants were inoculated with a spore suspension of Venturia inaequalis, the casual agent of apple scab, and incubated in a saturated humidity chamber at 20° C. for 24 hours and then in a growth chamber at 22° C. for 11 days, when disease ratings were made. […] A dashed entry indicates the specified test was not performed.

[3] = test system: peanut seedlings; experiment: Example B: plant disease control on peanut seedlings; assay type: in vivo; settings: 200 ppm, 100 = 100% disease control
Method: The test compounds were dissolved in acetone in an amount equal to 6% of the final volume and then suspended at a concentration of 200 ppm in purified water containing 250 ppm of the surfactant TREM […] (polyhydric alcohol esters). This suspension was sprayed to the point of run-off on peanut seedlings. The following day plants were incubated in a saturated humidity chamber at 22° C. for 24 hours, then in a high humidity chamber at 27° C. for 7 days, and then in a growth chamber at 29° C. for 7 days, when disease ratings were made.
In this table, a rating of 100 indicated 100% disease control, and a rating of 0 indicates no disease control relative to untreated plants that were inoculated and incubated as described in each Example. A dashed entry indicates the specified test was not performed.

[4] = test system: Botyrtis cinerea; experiment: Example C: bean grey mold on broad bean seedlings; assay type: in vivo; settings: 200 ppm, 100 = 100% disease control
Method: as §1, with “[…]” for “014”, “broad bean” for “apple”, “Botyrtis cinerea,” for “Venturia inaequalis,”, “causal” for “casual”, “bean grey mold,” for “apple scab,”, “hours” for “hours and then in a growth chamber at 22° C. for 11 days,”

[5] = test system: Ersiphe graminis f. sp. tritici; experiment: Example D: wheat powdery mildew on wheat seedlings; assay type: in vivo; settings: 200 ppm, 100 = 100% disease control
Method: The test compounds were dissolved in acetone in an amount equal to 6% of the final volume and then suspended at a concentration of 200 ppm in purified water containing 250 ppm of the surfactant TREM 014 (polyhydric alcohol esters). This suspension was sprayed to the point of run-off on wheat seedlings. […] A dashed entry indicates the specified test was not performed.

[6] = test system: Pyricularia oryzae; assay type: in vivo; settings: rice seedlings, 200 ppm; 100 = 100% disease control
[7] = test system: Rhizoctonia solani; experiment: Example F: rice sheath blight on rice seedlings; assay type: in vivo; settings: 220 ppm, 0 = no disease control, 100 = 100% disease control
Method: The test compounds were dissolved in acetone in an amount equal to 6% of the final volume and then suspended at a concentration of 220 ppm in purified water containing 250 ppm of the surfactant TREM 014 (polyhydric alcohol esters). This suspension was sprayed to the point of run-off on rice seedlings. The following day plants were inoculated with a mycelial suspension of Rhizoctonia solani, the causal agent of rice sheath blight, and incubated in a saturated humidity chamber at 27° C. for 48 hours and then in a growth chamber at 29° C. for 4 days, when disease ratings were made. […] A dashed entry indicates the specified test was not performed.

[8] = test system: Puccinia recondita; experiment: Example G: wheat leaf rust on wheat seedlings; assay type: in vivo; settings: 220 ppm, 100 = 100% disease control
Method: The test compounds were dissolved in acetone in an amount equal to 6% of the final volume and then suspended at a concentration of 220 ppm in purified water containing 250 ppm of the surfactant TREM 014 (polyhydric alcohol esters). This suspension was sprayed to the point of run-off on wheat seedlings. The following day plants were inoculated with a spore suspension of Puccinia recondita, the causal agent of wheat leaf rust, and incubated in a saturated humidity chamber at 20° C. for 48 hours and then in a growth chamber at 20° C. for 8 days, when disease ratings were made. […] A dashed entry indicates the specified test was not performed.

[9] = test system: Phytophthora infestans; assay type: in vivo; settings: tomato seedlings, 200 ppm; 100 = 100% disease control
[10] = test system: Plasmopara victicola; experiment: Example I: grape downy mildew on grape seedlings; assay type: in vivo; settings: 200 ppm, 100 = 100% disease control
Method: (§2) The test compounds were dissolved in acetone in an amount equal to 6% of the final volume and then suspended at a concentration of 200 ppm in purified water containing 250 ppm of the surfactant TREM 014 (polyhydric alcohol esters). This suspension was sprayed to the point of run-off on grape seedlings. The following day plants were inoculated with a spore suspension of Plasmopara victicola, the causal agent of grape downy mildew, and incubated in a saturated humidity chamber at 20° C. for 24 hours and then in a growth chamber at 20° C. for 7 days, and then held in a saturated humidity chamber at 20° C. for 24 hours, when disease ratings were made. […] A dashed entry indicates the specified test was not performed.

[11] = test system: Botrytis cinerea; experiment: Example J: grape grey mold on grape seedlings; assay type: in vivo; settings: 200 ppm, 100 = 100% disease control
Method: as §2, with “Botrytis cinerea,” for “Plasmopara victicola,”, “grey mold,” for “downy mildew,”, “96” for “24”, “hours” for “hours and then in a growth chamber at 20° C. for 7 days, and then held in a saturated humidity chamber at 20° C. for 24 hours,”

[12] = test system: Botrytis cinerea; experiment: Example K: cucumber grey mold on cucumber seedlings; assay type: in vivo; settings: 200 ppm, 100 = 100% disease control
Method: as §2, with “cucumber” for “grape”, “Botrytis cinerea,” for “Plasmopara victicola,”, “cucumber grey mold,” for “grape downy mildew,”, “4 days” for “24 hours and then in a growth chamber at 20° C. for 7 days, and then held in a saturated humidity chamber at 20° C. for 24 hours,”

SMILES: CC(C)CCC[C@@H](C)[C@H]1CN=C2C3=C(CC[C@@]21C)[C@@]1(C)CC[C@H](O)C[C@@H]1CC3 [Example 1818]
- pIC50 [1]: 6.80
- disease control rating, Example A [2]: 99%
- disease control rating, Example B [3]: 95%
- disease control rating, Example C [4]: 95%
- disease control rating, Example D [5]: 98%
- disease control rating, Example E [6]: 6%
- disease control rating, Example F [7]: 0%
- disease control rating, Example G [8]: 100%
- disease control rating, Example H [9]: 94%
- disease control rating, Example I [10]: 100%
- disease control rating, Example J [11]: 78%
- disease control rating, Example K [12]: 100%
